PMC10584170, “Machine learning-based phenotypic imaging to characterise the targetable biology of Plasmodium falciparum male gametocytes for the development of transmission-blocking antimalarials” (PLOS Pathogens, 2023)
Where two headings read alike, the source gives them in different places. One block for each molecule: values may come before it.

Columns and labels:
[1] = system: P. falciparum male gametocytes; assay: P. falciparum Dual Gamete Formation Assay (PfDGFA), male readout (exflagellation); type: cell-based, Plasmodium falciparum NF54; settings: for Selectivity Ratio M: HepG2 Tox50 versus male IC50; for IC50: PfDGFA, 24 h incubation with gametocytes before induction, exflagellation readout, read-out: Male IC50; for HitlevelM: number of replicates with >50% inhibition in the male readout
Method in brief: (§1)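 NF54 mature gametocytes (d14), cpd 24 h 37°C hypoxic gas; trigger: xanthurenic acid ookinete medium + Cy3 anti-Pfs25, 4°C 4 min → 28°C 4 min. Male: exflagellation centres, brightfield x6. Female: Pfs25+ gametes, fluorescence, +24 h 28°C dark.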

HepG2 cells = assay: HepG2 cytotoxicity counter-screen; settings: cytotoxic activity against HepG2 cells
[2] = system: P. falciparum female gametocytes; assay: P. falciparum Dual Gamete Formation Assay (PfDGFA), female readout (Pfs25-positive female gametes); type: cell-based, Plasmodium falciparum NF54; settings: for Selectivity ratio F: HepG2 Tox50 versus female IC50; for IC50: PfDGFA, 24 h incubation with gametocytes before induction, female gamete readout, read-out: Female IC50; for HitlevelF: number of replicates with >50% inhibition in the female readout
Method in brief: as §1

[3] = Plasmodium falciparum, 2µM, 24h preincubation with gametocytes, average of replicates, read-out: Average inhibition male (%)
[4] = Plasmodium falciparum, 2µM, 24h preincubation with gametocytes, replicate R1, read-out: % inhibition male (individual replicates) R1
[5] = Plasmodium falciparum, 2µM, 24h preincubation with gametocytes, replicate R2, read-out: % inhibition male (individual replicates) R2
[6] = Plasmodium falciparum, 2µM, 24h preincubation with gametocytes, replicate R3, read-out: % inhibition male (individual replicates) R3
[7] = Plasmodium falciparum, 2µM, 24h preincubation with gametocytes, replicate R4, read-out: % inhibition male (individual replicates) R4
[8] = Plasmodium falciparum, 2µM, 24h preincubation with gametocytes, average of replicates, read-out: Average inhibition female (%)
[9] = Plasmodium falciparum, 2µM, 24h preincubation with gametocytes, replicate R1, read-out: % inhibition female (individual replicates) R1
[10] = Plasmodium falciparum, 2µM, 24h preincubation with gametocytes, replicate R2, read-out: % inhibition female (individual replicates) R2
[11] = Plasmodium falciparum, 2µM, 24h preincubation with gametocytes, replicate R3, read-out: % inhibition female (individual replicates) R3
[12] = Plasmodium falciparum, 2µM, 24h preincubation with gametocytes, replicate R4, read-out: % inhibition female (individual replicates) R4
[13] = PfDGFA at 2µM, 24h preincubation with gametocytes, average of replicates
[14] = PfDGFA at 2µM, 24h preincubation with gametocytes, replicate R1
[15] = PfDGFA at 2µM, 24h preincubation with gametocytes, replicate R3
[16] = PfDGFA at 2µM, 24h preincubation with gametocytes, replicate R4
[17] = 2µM, 24h preincubation with gametocytes, average of replicates
[18] = 2µM, 24h preincubation with gametocytes, replicate R1
[19] = 2µM, 24h preincubation with gametocytes, replicate R4
[20] = 2µM, 24h preincubation with gametocytes, replicate R3
[21] = 2µM, 24h preincubation with gametocytes prior to induction of gametogenesis, average of replicates
[22] = 2µM, 24h preincubation with gametocytes prior to induction of gametogenesis, replicate R1
[23] = 2µM, 24h preincubation with gametocytes prior to induction of gametogenesis, replicate R3
[24] = 2µM, 24h preincubation with gametocytes prior to induction of gametogenesis, replicate R4

IC50 ([1]; Plasmodium falciparum): 950 nM
IC50 ([2]; Plasmodium falciparum): > 10000 nM
SMILES: Cc1cc(Nc2ccncc2)n2nc(C)c(-c3ccc(Cl)cc3)c2n1 [TCMDC-124478]
Selectivity Ratio M [1]: 68.63
inhibition at 2 µM [1, 3]: 95.5%
inhibition at 2 µM [1, 4]: 96.8%
inhibition at 2 µM [1, 5]: 90.6%
inhibition at 2 µM [1, 6]: 96.8%
inhibition at 2 µM [1, 7]: 98%
Tox50 (HepG2 cells): 65.53 µM
Selectivity ratio F [2]: 6.55
inhibition at 2 µM [2, 8]: 2.4%
inhibition at 2 µM [2, 9]: -1.3%
inhibition at 2 µM [2, 10]: -8.5%
inhibition at 2 µM [2, 11]: 24.2%
inhibition at 2 µM [2, 12]: -4.9%

IC50 ([1]; Plasmodium falciparum): 1410 nM
IC50 ([2]; Plasmodium falciparum): 740 nM
SMILES: Cc1sc2ncnc(Sc3nnc(N)s3)c2c1C [TCMDC-124542]
Selectivity Ratio M [1]: 46.96
inhibition at 2 µM ([1]; Plasmodium falciparum, PfDGFA at 2µM, 24h preincubation with gametocytes, average of replicates, read-out: Average inhibition male (%)): 69.3%
inhibition at 2 µM ([1]; Plasmodium falciparum, PfDGFA at 2µM, 24h preincubation with gametocytes, replicate R1, read-out: % inhibition male (individual replicates) R1): 92.1%
inhibition at 2 µM ([1]; Plasmodium falciparum, PfDGFA at 2µM, 24h preincubation with gametocytes, replicate R2, read-out: % inhibition male (individual replicates) R2): 95.8%
inhibition at 2 µM ([1]; Plasmodium falciparum, PfDGFA at 2µM, 24h preincubation with gametocytes, replicate R3, read-out: % inhibition male (individual replicates) R3): 87%
inhibition at 2 µM ([1]; Plasmodium falciparum, PfDGFA at 2µM, 24h preincubation with gametocytes, replicate R4, read-out: % inhibition male (individual replicates) R4): 2.3%
HitlevelM ([1]; 2µM): 3
Tox50 (HepG2 cells): 66.05 µM
Selectivity ratio F [2]: 89.35
inhibition at 2 µM ([2]; Plasmodium falciparum, PfDGFA at 2µM, 24h preincubation with gametocytes, average of replicates, read-out: Average inhibition female (%)): 86.8%
inhibition at 2 µM ([2]; Plasmodium falciparum, PfDGFA at 2µM, 24h preincubation with gametocytes, replicate R1, read-out: % inhibition female (individual replicates) R1): 95.8%
inhibition at 2 µM ([2]; Plasmodium falciparum, PfDGFA at 2µM, 24h preincubation with gametocytes, replicate R2, read-out: % inhibition female (individual replicates) R2): 96.9%
inhibition at 2 µM ([2]; Plasmodium falciparum, PfDGFA at 2µM, 24h preincubation with gametocytes, replicate R3, read-out: % inhibition female (individual replicates) R3): 102%
inhibition at 2 µM ([2]; Plasmodium falciparum, PfDGFA at 2µM, 24h preincubation with gametocytes, replicate R4, read-out: % inhibition female (individual replicates) R4): 52.6%
HitlevelF ([2]; 2µM): 4

IC50 [1]: 2000 nM
IC50 [2]: 1140 nM
SMILES: O=C(O)C(=O)O.Oc1c(CN2CCC(Cc3ccccc3)CC2)cc(Cl)c2cccnc12 [TCMDC-124594]
Average inhibition male (%) [1, 17]: 92.4%
% inhibition male (individual replicates) R1 [1, 18]: 97.5%
% inhibition male (individual replicates) R3 [1, 20]: 93.3%
% inhibition male (individual replicates) R4 [1, 19]: 86.9%
Selectivity Ratio M [1]: 2.09
Tox50 (HepG2 cells): 4.17 µM
Average inhibition female (%) [2, 17]: 49.8%
% inhibition female (individual replicates) R1 [2, 18]: 37.8%
% inhibition female (individual replicates) R3 [2, 20]: 58.8%
% inhibition female (individual replicates) R4 [2, 19]: 51.4%
Selectivity ratio F [2]: 3.66

IC50 ([1]; Plasmodium falciparum): 400 nM
IC50 ([2]; Plasmodium falciparum): 440 nM
SMILES: O=C(c1ccc([N+](=O)[O-])o1)N1CCC(Cc2ccc(C(F)(F)F)cc2)CC1 [TCMDC-124805]
Selectivity Ratio M [1]: 70.69
inhibition at 2 µM [1, 3]: 101%
inhibition at 2 µM [1, 4]: 98.9%
inhibition at 2 µM [1, 5]: 100%
inhibition at 2 µM [1, 6]: 102%
inhibition at 2 µM [1, 7]: 102%
Tox50 (HepG2 cells): 28.45 µM
Selectivity ratio F [2]: 64.48
inhibition at 2 µM [2, 8]: 55.8%
inhibition at 2 µM [2, 9]: 35.5%
inhibition at 2 µM [2, 10]: 62.7%
inhibition at 2 µM [2, 11]: 38.2%
inhibition at 2 µM [2, 12]: 86.7%

The remaining lines, values behind:

SMILES: [O-][s+]1c(Cl)c(-c2ccc(Cl)cc2)c2ccc(Cl)cc21 (stereo not drawn) [TCMDC-124011]
Selectivity Ratio M [1]: 123.92
inhibition at 2 µM [1, 3]: 99.1%
inhibition at 2 µM [1, 4]: 99.4%
inhibition at 2 µM [1, 5]: 99.6%
inhibition at 2 µM [1, 6]: 98.6%
inhibition at 2 µM [1, 7]: 98.9%
IC50 ([1]; Plasmodium falciparum): 140 nM
Tox50 (HepG2 cells): 17.6 µM
Selectivity ratio F [2]: 125.38
inhibition at 2 µM [2, 8]: 46.7%
inhibition at 2 µM [2, 9]: 29.4%
inhibition at 2 µM [2, 10]: 65.7%
inhibition at 2 µM [2, 11]: 37%
inhibition at 2 µM [2, 12]: 54.7%
IC50 ([2]; Plasmodium falciparum): 140 nM

SMILES: CCCCOc1ccc(C(=O)C(CCC(CNC(C)(C)C)C(=O)c2ccc(OCCCC)cc2)CNC(C)(C)C)cc1.Cl (stereo not drawn) [TCMDC-124120]
Selectivity Ratio M [1]: 2.27
Average inhibition male (%) [1, 13]: 78.6%
% inhibition male (individual replicates) R1 [1, 14]: 81.6%
% inhibition male (individual replicates) R3 [1, 15]: 47.4%
% inhibition male (individual replicates) R4 [1, 16]: 92.9%
IC50 [1]: 1500 nM
HitlevelM ([1]; 2µM): 3
Tox50 (HepG2 cells): 3.4 µM
Selectivity ratio F [2]: 0.84
Average inhibition female (%) [2, 13]: 46.8%
% inhibition female (individual replicates) R1 [2, 14]: 36.1%
% inhibition female (individual replicates) R3 [2, 15]: 20.3%
% inhibition female (individual replicates) R4 [2, 16]: 72.1%
IC50 [2]: 4060 nM
HitlevelF ([2]; 2µM): 2

SMILES: CCN1CCN(c2ccc(Nc3c4ccccc4nc4ccccc34)cc2)CC1 [TCMDC-124255]
Selectivity Ratio M [1]: 8.44
Average inhibition male (%) [1, 13]: 77.2%
% inhibition male (individual replicates) R1 [1, 14]: 84.6%
% inhibition male (individual replicates) R3 [1, 15]: 78.3%
% inhibition male (individual replicates) R4 [1, 16]: 87.4%
IC50 [1]: 1770 nM
HitlevelM ([1]; 2µM): 4
Tox50 (HepG2 cells): 14.96 µM
Selectivity ratio F [2]: 2.14
Average inhibition female (%) [2, 13]: -4.4%
% inhibition female (individual replicates) R1 [2, 14]: -2.2%
% inhibition female (individual replicates) R3 [2, 15]: -22.1%
% inhibition female (individual replicates) R4 [2, 16]: 3.0%
IC50 [2]: 6980 nM
HitlevelF ([2]; 2µM): 0

SMILES: O=C1Nc2ccccc2C1=NNC(=S)N1CCOCC1 [TCMDC-124263]
Selectivity Ratio M [1]: 49.26
inhibition at 2 µM [1, 3]: 98.7%
inhibition at 2 µM [1, 4]: 98.4%
inhibition at 2 µM [1, 5]: 100%
inhibition at 2 µM [1, 6]: 99.2%
inhibition at 2 µM [1, 7]: 96.9%
IC50 ([1]; Plasmodium falciparum): 940 nM
Tox50 (HepG2 cells): 46.3 µM
Selectivity ratio F [2]: 25.94
inhibition at 2 µM [2, 8]: 55.9%
inhibition at 2 µM [2, 9]: 38.4%
inhibition at 2 µM [2, 10]: 72%
inhibition at 2 µM [2, 11]: 48.4%
inhibition at 2 µM [2, 12]: 64.6%
IC50 ([2]; Plasmodium falciparum): 1780 nM

SMILES: Cl.Cl.c1ccc2c(NCCCCCCNc3c4ccccc4nc4ccccc34)c3ccccc3nc2c1 [TCMDC-124285]
Average inhibition male (%) [1, 17]: 93.2%
% inhibition male (individual replicates) R1 [1, 18]: 96.3%
% inhibition male (individual replicates) R4 [1, 19]: 88.4%
Selectivity Ratio M [1]: 3.7
IC50 [1]: 1680 nM
Tox50 (HepG2 cells): 6.2 µM
Average inhibition female (%) [2, 17]: 50.4%
% inhibition female (individual replicates) R1 [2, 18]: 48.2%
% inhibition female (individual replicates) R3 [2, 20]: 44.8%
% inhibition female (individual replicates) R4 [2, 19]: 50.1%
Selectivity ratio F [2]: 1.95
IC50 [2]: 3180 nM

SMILES: Cl.c1ccc2c(NCCCCCCCCCNc3c4ccccc4nc4ccccc34)c3ccccc3nc2c1 [TCMDC-124286]
Average inhibition male (%) [1, 21]: 61.5%
% inhibition male (individual replicates) R1 [1, 22]: 79.2%
% inhibition male (individual replicates) R3 [1, 23]: 1.0%
% inhibition male (individual replicates) R4 [1, 24]: 84.9%
HitlevelM ([1]; 2µM, 24h preincubation): 3
Selectivity Ratio M [1]: 3.22
IC50 [1]: 1960 nM
Tox50 (HepG2 cells): 6.29 µM
Average inhibition female (%) [2, 21]: 43.1%
% inhibition female (individual replicates) R1 [2, 22]: 36.0%
% inhibition female (individual replicates) R3 [2, 23]: 18.9%
% inhibition female (individual replicates) R4 [2, 24]: 71.3%
HitlevelF ([2]; 2µM, 24h preincubation): 1
Selectivity ratio F [2]: 1.31
IC50 [2]: 4810 nM

SMILES: C=CCN(C(=O)c1ccc(Cl)c([N+](=O)[O-])c1)c1nc(-c2ccccc2)cs1 [TCMDC-124436]
Selectivity Ratio M [1]: 69.29
inhibition at 2 µM [1, 3]: 99.6%
inhibition at 2 µM [1, 4]: 99.4%
inhibition at 2 µM [1, 5]: 98.5%
inhibition at 2 µM [1, 6]: 102%
inhibition at 2 µM [1, 7]: 98.2%
IC50 ([1]; Plasmodium falciparum): 400 nM
Tox50 (HepG2 cells): 27.57 µM
Selectivity ratio F [2]: 88.48
inhibition at 2 µM [2, 8]: 53%
inhibition at 2 µM [2, 9]: 34.2%
inhibition at 2 µM [2, 10]: 85.7%
inhibition at 2 µM [2, 11]: 53.1%
inhibition at 2 µM [2, 12]: 38.9%
IC50 ([2]; Plasmodium falciparum): 310 nM
